{
  "source": "patent US8999419B2",
  "about": "“Enhancement of potato tuber sprouting inhibitors using various combinations of agents” (Washington State University, priority 2010, dated 2015)",
  "key": {"[1]": {"tested_on": "'Ranger Russet' tubers", "assay": "Days to average sprout length of 10 mm, 2-decanone followed by CIPC", "format": "in vivo, potato", "protocol": "(§1) This study, as described, used 3-decen-2-one (3D2). The study was duplicated as described with 2-decanone in place of 3D2. Tubers were stored at 9° C. until they emerged from dormancy (when 75% of the sample tubers are peeping, and the longest sprouts are no longer than 4 mm). At this time, 3-decen-2-one was applied at 0.75, 0.50, or 0.25 mmol/kg to ‘burn off’ growing sprouts. Each of these treatments was followed by applications of 1, 0.73, 0.47 or 0.20% a.i. of CIPC EC. The label rate of CIPC EC is 1% a.i. and results in a 10 mg/kg fresh wt application when applied as directed. Sprout measurements were obtained every two weeks. The length of the longest sprout on each tuber was recorded. The average length of the longest sprout was plotted over time for each treatment combination. The days to 10 mm were estimated from the second linear regression line of each element. Positive control treatments included the three rates of 3D2 alone and four post-sprouting concentrations of CIPC alone. The standard control treatment consisted of non-treated tubers."}, "[2]": {"tested_on": "Russet Burbank potato tubers", "assay": "Sprout-free interval after CIPC and trans-2-nonenal, alone or in sequence", "format": "in vivo", "details": "CIPC 20 mg/kg; T2N 0.75 mmol/kg; applied at 151 DAH; tubers stored at 9° C.", "protocol": "FIGS. 2A and B. Treatment with combination of T2N and CIPC. A, sprout growth in “Russet Burbank” tubers treated as indicated with CIPC, trans-2-nonenal, or trans-2-nonenal and CIPC in sequence; fresh weight of sprouts (g/tuber) at the indicated time points. CIPC, 20 mg/kg; T2N, 0.75 mmol/kg; B, photo of tubers.\nFollowing the emergence of Russet Burbank potato tubers from dormancy, CIPC and trans-2-nonenal were applied either alone or sequentially as indicated in FIG. 2A. All treatments were applied at 151 days after harvest (DAH). Sprout control was considered to end when one third of the tubers in the sample produced a sprout mass of greater than 50 mg/tuber or when the mean of the total sample exceeded 1 g/tuber. When both CIPC and trans-2-nonenal were used, the sprout-free interval of the tubers stored at 9° C. […] In this study, the application of CIPC was unconventional in that it occurred when tubers were beginning to sprout, as opposed to the window between wound healing and sprouting. CIPC provided additional sprout control on tubers whose actively growing sprouts were initially terminated by trans-2-nonenal, i.e. when used in combination with trans-2-nonenal. Trans-2-nonenal thus expands the window of opportunity for application of CIPC and this invention can therefore be useful to reduce the application rate and residues of CIPC."}, "[3]": {"tested_on": "Russet Burbank tubers", "assay": "Sprout fresh weight after 24 h chamber treatment with 3N2 and 2-nonanone mixtures", "format": "in vivo, potato", "details": "treated 24 h, 21 days at 22° C.", "protocol": "FIG. 1. Effects of 3-nonen-2-one (3N2) in various combinations with 2-nonanone on sprouting of Russet Burbank tubers. The compounds were applied as described in Example 1. Tubers were treated for 24 h, removed from treatment chambers, and placed at 22° C. to sprout for 3 weeks. Sprout fresh weight is expressed as a percentage of control (non-treated), which were 100% sprouted.\nThe objective of this study was to determine the efficacy of mixtures of 3N2 and its metabolite, 2-nonanone, on sprout inhibition. Potato tubers were treated for 24 h in a closed chamber. The chemicals were volatilized from filter paper inside the chamber. Treatment was with 0 to 0.75 mmol/kg of 3N2 combined factorially with 0 to 0.75 mmol/kg of 2-nonanone. The treated tubers were placed at 22° C. and sprout fresh weights were measured 21 days after treatment. Sprout growth from tubers treated with 0.5 and 0.75 mmol/kg 2-nonanone averaged 58% of non-treated tubers, compared with 9% for […] applied alone (FIG. 1)."}, "[4]": {"tested_on": "'Ranger Russet' tubers", "assay": "Days to average sprout length of 10 mm, 3-decen-2-one followed by CIPC", "format": "in vivo, potato", "protocol": "The study used CIPC to extend the sprout-free period following an application of 3-decen-2-one or 2-decanone after sprouting occurs. Protocol.\nas §1"}, "[5]": {"details": "116 mg kg-1 rate, no subsequent treatment with CIPC"}},
  "data": [
    {"smiles": "CCCCCCCCC(C)=O", "note": "[2-decanone]", "values": [
      {"measurement": "Control before sprouting re-occurred", "setting": "[1]; 0.25 mmol/kg rate", "value": "approximately 1 month"},
      {"measurement": "Days of control following application", "setting": "[1]; [5]", "value": 50, "unit": "days"},
      {"measurement": "Days to 10 mm Actual", "setting": "[1]; 2-decanone 39 mg kg-1 fresh wt alone (CIPC 0)", "value": 34, "unit": "days"},
      {"measurement": "Days to 10 mm Actual", "setting": "[1]; 2-decanone 77 mg kg-1 fresh wt alone (CIPC 0)", "value": 42, "unit": "days"},
      {"measurement": "Days to 10 mm Actual", "setting": "[1]; 2-decanone 116 mg kg-1 fresh wt alone (CIPC 0)", "value": 49, "unit": "days"}
    ]},
    {"smiles": "CCCCCC/C=C/C=O", "note": "[trans-2-nonenal]", "values": [
      {"measurement": "Sprout-free interval", "setting": "[2]", "value": 155, "unit": "days"}
    ]},
    {"smiles": "CCCCCCCC(C)=O", "note": "[2-nonanone]", "values": [
      {"measurement": "Sprout growth (fresh weight) as percentage of non-treated tubers", "setting": "[3]; 0.5 and 0.75 mmol/kg 2-nonanone, averaged", "value": 58, "unit": "%"}
    ]},
    {"smiles": "CCCCCCC=CC(C)=O", "note": "[3D2, 3-decen-2-one]", "values": [
      {"measurement": "Control before sprouting re-occurred", "setting": "[4]; 0.25 mmol/kg rate", "value": "approximately 1 month"},
      {"measurement": "Days of control following application", "setting": "[4]; [5]", "value": 58, "unit": "days"},
      {"measurement": "Days to 10 mm Actual", "setting": "[4]; 3D2 39 mg kg-1 fresh wt alone (CIPC 0)", "value": 38, "unit": "days"},
      {"measurement": "Days to 10 mm Actual", "setting": "[4]; 3D2 77 mg kg-1 fresh wt alone (CIPC 0)", "value": 40, "unit": "days"},
      {"measurement": "Days to 10 mm Actual", "setting": "[4]; 3D2 116 mg kg-1 fresh wt alone (CIPC 0)", "value": 57, "unit": "days"}
    ]},
    {"smiles": "CC(C)OC(=O)Nc1cccc(Cl)c1", "note": "[CIPC, chlorpropham, reference compound]", "values": [
      {"measurement": "Sprout-free interval", "setting": "[2]", "value": 124, "unit": "days"},
      {"measurement": "Days to 10 mm Actual", "setting": "[4]; CIPC 2.0 mg kg-1 fresh wt alone (3D2 0), Table 1 study", "value": 51, "unit": "days"},
      {"measurement": "Days to 10 mm Actual", "setting": "[4]; CIPC 4.7 mg kg-1 fresh wt alone (3D2 0), Table 1 study", "value": 80, "unit": "days"},
      {"measurement": "Days to 10 mm Actual", "setting": "[4]; CIPC 7.3 mg kg-1 fresh wt alone (3D2 0), Table 1 study", "value": 99, "unit": "days"},
      {"measurement": "Days to 10 mm Actual", "setting": "[4]; CIPC 10 mg kg-1 fresh wt alone (3D2 0), Table 1 study", "value": 95, "unit": "days"},
      {"measurement": "Days to 10 mm Actual", "setting": "[1]; CIPC 2.0 mg kg-1 fresh wt alone (2-decanone 0), Table 2 study", "value": 85, "unit": "days"},
      {"measurement": "Days to 10 mm Actual", "setting": "[1]; CIPC 4.7 mg kg-1 fresh wt alone (2-decanone 0), Table 2 study", "value": 113, "unit": "days"},
      {"measurement": "Days to 10 mm Actual", "setting": "[1]; CIPC 7.3 mg kg-1 fresh wt alone (2-decanone 0), Table 2 study", "value": 110, "unit": "days"},
      {"measurement": "Days to 10 mm Actual", "setting": "[1]; CIPC 10 mg kg-1 fresh wt alone (2-decanone 0), Table 2 study", "value": 112, "unit": "days"}
    ]},
    {"smiles": "CCCCCC=CC(C)=O", "note": "[3N2, 3-nonen-2-one]", "values": [
      {"measurement": "Sprout growth (fresh weight) as percentage of non-treated tubers", "setting": "[3]; 0.75% 3N2 applied alone", "value": 9, "unit": "%"}
    ]}
  ]
}
